Data taken from ChEMBL document CHEMBL1139487, “Discovery of corticotropin releasing factor 2 receptor selective sauvagine analogues for treatment of skeletal muscle atrophy” (J Med Chem, 2005).
pEC50: −log10 of the molar value. Square brackets hold non-standard residues; d marks the D form. Peptide text beside a SMILES is read from it. 2Nal = N[C@@H](Cc1ccc2ccccc2c1)C(=O)O; pGlu = O=C1CC[C@@H](C(=O)O)N1

How the values were obtained:
Mus musculus [1] = species: Mus musculus; experiment: Selectivity ratio of EC50s for mouse corticotropin releasing factor receptors 1 and 2
Mus musculus [2] = experiment: In vivo percentage inhibition against casting induced tibialis anterior mass loss in mouse at a dosage of 30 ug/kg/day; assay type: functional
Mus musculus [3] = experiment: In vivo percentage inhibition against casting induced tibialis anterior mass loss in mouse at a dosage of 10 ug/kg/day; assay type: functional
[4] = biological target: Corticotropin-releasing factor receptor 2 (Mus musculus) (UniProt Q60748); experiment: In vitro agonistic activity against mouse corticotropin releasing factor 2 receptor; assay type: functional
Mus musculus [5] = experiment: In vivo percentage inhibition against casting induced tibialis anterior mass loss in mouse at a dosage of 100 ug/kg/day; assay type: functional
[6] = biological target: T1, Corticotropin-releasing factor receptor 1 (Mus musculus) (UniProt P35347); experiment: In vitro agonistic activity against mouse corticotropin releasing factor 1 receptor; assay type: functional
T1 sequence (whole entry): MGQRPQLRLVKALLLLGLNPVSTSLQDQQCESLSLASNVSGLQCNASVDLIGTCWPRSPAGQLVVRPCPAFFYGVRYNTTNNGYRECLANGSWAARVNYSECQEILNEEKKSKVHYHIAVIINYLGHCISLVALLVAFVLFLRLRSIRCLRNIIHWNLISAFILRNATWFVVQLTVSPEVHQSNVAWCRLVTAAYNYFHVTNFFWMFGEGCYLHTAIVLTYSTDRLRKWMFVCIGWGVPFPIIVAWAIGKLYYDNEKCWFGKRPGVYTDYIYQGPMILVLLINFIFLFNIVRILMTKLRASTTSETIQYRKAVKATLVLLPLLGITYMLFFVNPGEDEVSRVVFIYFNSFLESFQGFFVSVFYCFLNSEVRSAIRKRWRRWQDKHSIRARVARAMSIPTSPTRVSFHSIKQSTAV

[7] = biological target: Corticotropin-releasing factor receptor 2 (Mus musculus, UniProt Q60748); experiment: In vitro effective concentration for mouse corticotropin releasing factor 2 receptor
[8] = biological target: T2, Corticotropin-releasing factor receptor 1 (Mus musculus, UniProt P35347); experiment: In vitro effective concentration for mouse corticotropin releasing factor 1 receptor
T2 sequence (P35347 whole entry): T1 sequence (whole entry)

Chain of Corticotropin-releasing factor receptor 2 (Mus musculus) (Q60748 whole entry): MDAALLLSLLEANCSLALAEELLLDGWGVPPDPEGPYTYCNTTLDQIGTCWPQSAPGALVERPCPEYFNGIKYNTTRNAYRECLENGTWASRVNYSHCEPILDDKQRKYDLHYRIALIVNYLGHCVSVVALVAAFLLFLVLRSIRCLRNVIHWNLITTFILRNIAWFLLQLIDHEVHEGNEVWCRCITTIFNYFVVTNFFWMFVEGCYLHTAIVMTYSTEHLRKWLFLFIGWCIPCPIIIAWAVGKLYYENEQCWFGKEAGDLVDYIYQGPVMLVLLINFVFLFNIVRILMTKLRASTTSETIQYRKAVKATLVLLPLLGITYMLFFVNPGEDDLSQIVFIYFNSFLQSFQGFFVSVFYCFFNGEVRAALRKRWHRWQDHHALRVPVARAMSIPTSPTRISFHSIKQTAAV
Chain of Corticotropin-releasing factor receptor 2 (Q60748 whole entry): as above

SMILES | Selectivity (Mus musculus [1]) | inhibition in vivo at 0.03 mg/kg/day (Mus musculus [2]) | inhibition in vivo at 0.01 mg/kg/day (Mus musculus [3]) | Emax [4] | inhibition in vivo at 0.1 mg/kg/day (Mus musculus [5]) | Emax [6] | pEC50 [7] | pEC50 [8]
CC[C@H](C)[C@H](NC(=O)[C@@H](NC(=O)[C@H](CC(=O)O)NC(=O)[C@H](CC(C)C)NC(=O)[C@H](CC(C)C)NC(=O)[C@H](CC(C)C)NC(=O)[C@H](CCCN=C(N)N)NC(=O)[C@H](CC(N)=O)NC(=O)[C@H](CC(N)=O)NC(=O)[C@H](C)NC(=O)[C@H](C)NC(=O)[C@H](CCC(N)=O)NC(=O)[C@H](CCC(N)=O)NC(=O)[C@H](CCCCN)NC(=O)[C@H](CCC(=O)O)NC(=O)[C@H](CCCCN)NC(=O)[C@H](CCC(=O)O)NC(=O)[C@H](CCC(N)=O)NC(=O)[C@H](CCCCN)NC(=O)[C@H](CCC(=O)O)NC(=O)[C@@H](NC(=O)[C@H](CCC(=O)O)NC(=O)[C@@H](NC(=O)[C@H](CCSC)NC(=O)[C@H](CCCCN)NC(=O)[C@H](CCCN=C(N)N)NC(=O)[C@H](CC(C)C)NC(=O)[C@H](CC(C)C)NC(=O)[C@@H](NC(=O)[C@H](CCC(N)=O)NC(=O)[C@@H]1CCCN1C(=O)[C@H](CC(C)C)NC(=O)[C@H](CC(=O)O)NC(=O)[C@@H](NC(=O)[C@H](CO)NC(=O)[C@@H](NC(=O)[C@@H]1CCCN1C(=O)[C@@H]1CCCN1C(=O)CNC(=O)[C@@H]1CCC(=O)N1)[C@@H](C)CC)[C@@H](C)CC)[C@@H](C)CC)[C@@H](C)CC)[C@@H](C)CC)[C@@H](C)O)C(=O)O | 83 | 14% | 32% | 93% | 73% | 93% | – | –
CC[C@H](C)[C@H](NC(=O)[C@@H](NC(=O)[C@H](CC(=O)O)NC(=O)[C@H](CC(C)C)NC(=O)[C@H](CC(C)C)NC(=O)[C@H](CC(C)C)NC(=O)[C@H](CCCN=C(N)N)NC(=O)[C@H](CC(N)=O)NC(=O)[C@H](CC(N)=O)NC(=O)[C@H](C)NC(=O)[C@H](C)NC(=O)[C@H](CCC(N)=O)NC(=O)[C@H](CCC(N)=O)NC(=O)[C@H](CCCCN)NC(=O)[C@H](CCC(=O)O)NC(=O)[C@H](CCCCN)NC(=O)[C@H](CCC(=O)O)NC(=O)[C@H](CCC(N)=O)NC(=O)[C@H](CCCCN)NC(=O)[C@H](CCC(=O)O)NC(=O)[C@@H](NC(=O)[C@H](CCC(=O)O)NC(=O)[C@@H](NC(=O)[C@H](CCSC)NC(=O)[C@H](CCCCN)NC(=O)[C@H](CCCN=C(N)N)NC(=O)[C@H](CC(C)C)NC(=O)[C@H](CC(C)C)NC(=O)[C@H](CC(C)C)NC(=O)[C@@H](NC(=O)[C@@H]1CCCN1C(=O)[C@H](CC(C)C)NC(=O)[C@H](CC(=O)O)NC(=O)[C@@H](NC(=O)[C@H](CO)NC(=O)[C@@H](NC(=O)[C@@H]1CCCN1C(=O)[C@@H]1CCCN1C(=O)CNC(=O)[C@@H]1CCC(=O)N1)[C@@H](C)CC)[C@@H](C)CC)[C@@H](C)CC)[C@@H](C)CC)[C@@H](C)CC)[C@@H](C)O)C(=O)O | > 64 | 66% | 10% | 88% | 91% | 72% | 7.81 | < 6.00
CC[C@H](C)[C@H](NC(=O)[C@@H](NC(=O)[C@H](CC(=O)O)NC(=O)[C@H](CC(C)C)NC(=O)[C@H](CC(C)C)NC(=O)[C@H](CC(C)C)NC(=O)[C@H](CCCN=C(N)N)NC(=O)[C@H](CC(N)=O)NC(=O)[C@H](CC(N)=O)NC(=O)[C@H](C)NC(=O)[C@H](C)NC(=O)[C@H](CCC(N)=O)NC(=O)[C@H](CCC(N)=O)NC(=O)[C@H](CCCCN)NC(=O)[C@H](CCC(=O)O)NC(=O)[C@H](CCCCN)NC(=O)[C@H](CCC(=O)O)NC(=O)[C@H](CCC(N)=O)NC(=O)[C@H](CCCCN)NC(=O)[C@H](CCC(=O)O)NC(=O)[C@@H](NC(=O)[C@H](CCC(=O)O)NC(=O)[C@@H](NC(=O)[C@H](CCSC)NC(=O)[C@H](CCCCN)NC(=O)[C@H](CCCN=C(N)N)NC(=O)[C@H](CC(C)C)NC(=O)[C@H](Cc1ccc2ccccc2c1)NC(=O)[C@H](Cc1c[nH]c2ccccc12)NC(=O)[C@H](CC(C)C)NC(=O)[C@@H]1CCCN1C(=O)[C@H](CC(C)C)NC(=O)[C@H](CC(=O)O)NC(=O)[C@@H](NC(=O)[C@H](CO)NC(=O)[C@@H](NC(=O)[C@@H]1CCCN1C(=O)[C@@H]1CCCN1C(=O)CNC(=O)[C@@H]1CCC(=O)N1)[C@@H](C)CC)[C@@H](C)CC)[C@@H](C)CC)[C@@H](C)CC)[C@@H](C)O)C(=O)O ([pGlu]GPPISIDLPLW[2Nal]LRKMIEIEKQEKEKQQAANNRLLLDTI-OH) | 19 | 45% | 53% | 73% | 79% | 100% | 8.48 | 7.20
CC[C@H](C)[C@H](NC(=O)[C@@H](NC(=O)[C@H](CC(=O)O)NC(=O)[C@H](CC(C)C)NC(=O)[C@H](CC(C)C)NC(=O)[C@H](CC(C)C)NC(=O)[C@H](CCCN=C(N)N)NC(=O)[C@H](CC(N)=O)NC(=O)[C@H](CC(N)=O)NC(=O)[C@H](C)NC(=O)[C@H](C)NC(=O)[C@H](CCC(N)=O)NC(=O)[C@H](CCC(N)=O)NC(=O)[C@H](CCCCN)NC(=O)[C@H](CCC(=O)O)NC(=O)[C@H](CCCCN)NC(=O)[C@H](CCC(=O)O)NC(=O)[C@H](CCC(N)=O)NC(=O)[C@H](CCCCN)NC(=O)[C@H](CCC(=O)O)NC(=O)[C@@H](NC(=O)[C@H](CCC(=O)O)NC(=O)[C@@H](NC(=O)[C@H](CCSC)NC(=O)[C@H](CCCCN)NC(=O)[C@H](CCCN=C(N)N)NC(=O)[C@H](CC(C)C)NC(=O)[C@H](CC(C)C)NC(=O)[C@H](Cc1ccccc1)NC(=O)[C@H](CC(C)C)NC(=O)[C@@H]1CCCN1C(=O)[C@H](CC(C)C)NC(=O)[C@H](CC(=O)O)NC(=O)[C@@H](NC(=O)[C@H](CO)NC(=O)[C@@H](NC(=O)[C@@H]1CCCN1C(=O)[C@@H]1CCCN1C(=O)CNC(=O)[C@@H]1CCC(=O)N1)[C@@H](C)CC)[C@@H](C)CC)[C@@H](C)CC)[C@@H](C)CC)[C@@H](C)O)C(=O)O | 10 | – | – | 88% | – | 93% | 8.00 | 6.99
CC[C@H](C)[C@H](NC(=O)[C@@H](NC(=O)[C@H](CC(=O)O)NC(=O)[C@H](CC(C)C)NC(=O)[C@H](CC(C)C)NC(=O)[C@H](CC(C)C)NC(=O)[C@H](CCCN=C(N)N)NC(=O)[C@H](CC(N)=O)NC(=O)[C@H](CC(N)=O)NC(=O)[C@H](C)NC(=O)[C@H](C)NC(=O)[C@H](CCC(N)=O)NC(=O)[C@H](CCC(N)=O)NC(=O)[C@H](CCCCN)NC(=O)[C@H](CCC(=O)O)NC(=O)[C@H](CCCCN)NC(=O)[C@H](CCC(=O)O)NC(=O)[C@H](CCC(N)=O)NC(=O)[C@H](CCCCN)NC(=O)[C@H](CCC(=O)O)NC(=O)[C@@H](NC(=O)[C@H](CCC(=O)O)NC(=O)[C@@H](NC(=O)[C@H](CCSC)NC(=O)[C@H](CCCCN)NC(=O)[C@H](CCCN=C(N)N)NC(=O)[C@H](CC(C)C)NC(=O)[C@H](CC(C)C)NC(=O)[C@H](Cc1c[nH]c2ccccc12)NC(=O)[C@@H](NC(=O)[C@@H]1CCCN1C(=O)[C@H](CC(C)C)NC(=O)[C@H](CC(=O)O)NC(=O)[C@@H](NC(=O)[C@H](CO)NC(=O)[C@@H](NC(=O)[C@@H]1CCCN1C(=O)[C@@H]1CCCN1C(=O)CNC(=O)[C@@H]1CCC(=O)N1)[C@@H](C)CC)[C@@H](C)CC)[C@@H](C)O)[C@@H](C)CC)[C@@H](C)CC)[C@@H](C)O)C(=O)O | > 66 | 84% | 30% | 100% | 91% | 43% | 7.82 | < 6.00
CC[C@H](C)[C@H](NC(=O)[C@@H](NC(=O)[C@H](CC(=O)O)NC(=O)[C@H](CC(C)C)NC(=O)[C@H](CC(C)C)NC(=O)[C@H](CC(C)C)NC(=O)[C@H](CCCN=C(N)N)NC(=O)[C@H](CC(N)=O)NC(=O)[C@H](CC(N)=O)NC(=O)[C@H](C)NC(=O)[C@H](C)NC(=O)[C@H](CCC(N)=O)NC(=O)[C@H](CCC(N)=O)NC(=O)[C@H](CCCCN)NC(=O)[C@H](CCC(=O)O)NC(=O)[C@H](CCCCN)NC(=O)[C@H](CCC(=O)O)NC(=O)[C@H](CCC(N)=O)NC(=O)[C@H](CCCCN)NC(=O)[C@H](CCC(=O)O)NC(=O)[C@@H](NC(=O)[C@H](CCC(=O)O)NC(=O)[C@@H](NC(=O)[C@H](CCSC)NC(=O)[C@H](CCCCN)NC(=O)[C@H](CCCN=C(N)N)NC(=O)[C@H](CC(C)C)NC(=O)[C@H](CC(C)C)NC(=O)[C@H](CC(C)C)NC(=O)[C@H](CCC(N)=O)NC(=O)[C@@H]1CCCN1C(=O)[C@H](CC(C)C)NC(=O)[C@H](CC(=O)O)NC(=O)[C@@H](NC(=O)[C@H](CO)NC(=O)[C@@H](NC(=O)[C@@H]1CCCN1C(=O)[C@@H]1CCCN1C(=O)CNC(=O)[C@@H]1CCC(=O)N1)[C@@H](C)CC)[C@@H](C)CC)[C@@H](C)CC)[C@@H](C)CC)[C@@H](C)O)C(=O)O | 16 | – | – | 93% | – | 96% | 7.56 | 6.35
